The results in this text go back to patent US20040116420A1 (priority 2001, published 2004).

A word on the IC50: it is the concentration needed to halve the response being measured. One may read the EC90 as the point of the concentration-response curve where the effect stands at 90%.

Structures are written as SMILES.

The target of one series is T1, HSV-1 protease (Human herpesvirus 1, UniProt P10210).
T1 construct: 6xHis (N); made in house; host or cells: baculovirus expression system
Put plainly: Enzymatic assay for HSV-1 protease (assembly) inhibitor, fluorescence polarization. The format is biochemical. As to conditions: read-out: HSV-1 Enzyme inhibition IC50. In short, it runs like this:
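His6-tagged HSV-1 UL26 protease, baculovirus-expressed, preincubated 30 min at RT with compound in 1 M citrate/phosphate buffer pH 7.4 with 20% glycerol and 2 mM TCEP. A biotin-HTYLQA*SERFRIK-DTAF substrate was then cleaved for 60 min at RT, stopped with avidin, and read by fluorescence polarization versus no-inhibitor control.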

Another series deals with HSV-1. Kind of series: Antiviral activity, HSV-1 in Vero cells, plaque method. The format is cell-based. The settings on record: Human alphaherpesvirus 1, 20 hours, 90% inhibition of plaque formation. The method, boiled down:
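HSV-1 (50,000 pfu in 2% FBS-DMEM) was added to Vero cells and removed, then the compound was applied in 2% FBS-DMEM for 20 h at 37° C, 5% CO2. After a freeze-thaw, virus yield in the medium was titred by plaque assay. EC90 is the concentration giving 90% plaque reduction versus the compound-free control.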

The subject of another series is Vero cells. Put plainly: Cytotoxicity, Vero cells, Alamar Blue. The format is cell-based. The settings on record: 25 μM, 20 hours. In short, it runs like this:
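Overnight-seeded Vero cells were exposed to 25 μM compound in 2% FBS-DMEM for 20 h at 37 °C, 5% CO2. Alamar Blue was then added for about 6 h. The absorbance ratio relative to compound-free control gave the living-cell ratio.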

T1 sequence (P10210 1-247): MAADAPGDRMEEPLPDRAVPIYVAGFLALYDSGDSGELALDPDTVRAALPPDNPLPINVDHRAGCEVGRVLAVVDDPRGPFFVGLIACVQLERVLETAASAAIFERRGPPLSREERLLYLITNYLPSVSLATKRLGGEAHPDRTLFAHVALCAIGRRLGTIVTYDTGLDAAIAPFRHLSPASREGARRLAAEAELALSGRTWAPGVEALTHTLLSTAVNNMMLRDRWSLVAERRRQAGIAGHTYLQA

Take `Cc1c(NC(=O)OC(C)(C)C)ccc2nc(N[C@H](C(=O)N(C)CCc3cccnc3)C(C)C)oc(=O)c12` [Compound No.67, (5-Methyl-2-{2-methyl-1S-[methyl-(2-pyridin-3-yl-ethyl)-carbamoyl]-propylamino}-4-oxo-4H-benzo[d][1,3]oxazin-6-yl)-carbamic acid tert-butyl ester]: on HSV-1 protease, the IC50 is 1.5 µM. The molecule also displayed a 90% effect concentration (EC90) in the series with HSV-1 of 5.3 µM. In the series with Vero cells, the “Cell viability (% of control)” value is on record as 96.5%.

On to `Cc1c(NC(=O)CCCNC(=O)c2ccc(N(C)C)cc2)ccc2nc(NC(C)(C)C(=O)N(C)CCc3ccccn3)oc(=O)c12` [Compound No.224, 4-Dimethylamino-N-[3-(5-methyl-2-{1-methyl-1-[methyl-(2-pyridin-2-yl-ethyl)-carbamoyl]-ethylamino}-4-oxo-4H-benzo[d][1,3]oxazin-6-ylcarbamoyl)-propyl]-benzamide], for which the IC50 at HSV-1 protease amounted to 0.4 µM. This molecule also came in with an EC90 in the series with HSV-1 greater than 12.5 µM. In addition, in the series with Vero cells, the “Cell viability (% of control)” value worked out at 107.5%.

Regarding `Cc1c(NC(=O)CCC2CCCCC2)ccc2nc(NC(C)(C)C(=O)N(C)CCc3ccccn3)oc(=O)c12` [Compound No.160, 2-[6-(3-Cyclohexyl-propionylamino)-5-methyl-4-oxo-4H-benzo[d][1,3]oxazin-2-ylamino]-2,N-dimethyl-N-(2-pyridin-2-yl-ethyl)-propionamide], at HSV-1 protease, the IC50 stood at 1.1 µM. In addition, in the series on HSV-1, the 90% effect level (EC90) was put at 11.3 µM. In addition, the “Cell viability (% of control)” value in the series on Vero cells was found to be 13.0%.

On to `Cc1c(NC(=O)OC(C)(C)C)ccc2nc(N3CCCC[C@H]3C(=O)N(C)CCc3cccnc3)oc(=O)c12` [Compound No.107, (5-Methyl-2-{2S-[methyl-(2-pyridin-3-yl-ethyl)-carbamoyl]-piperidin-1-yl}-4-oxo-4H-benzo[d][1,3]oxazin-6-yl)-carbamic acid tert-butyl ester], for which, at HSV-1 protease, the IC50 was 7.4 µM. In the series on HSV-1, this molecule showed a 90% effect concentration (EC90) greater than 12.5 µM. Further, the “Cell viability (% of control)” value in the series on Vero cells was 45.4%.

For `Cc1c(NC(=O)c2ccc3ccccc3c2)ccc2nc(NC(C)(C)C(=O)N(C)CCc3ccccn3)oc(=O)c12` [Compound No.194, Naphthalene-2-carboxylic acid (5-methyl-2-{1-methyl-1-[methyl-(2-pyridin-2-yl-ethyl)-carbamoyl]-ethylamino}-4-oxo-4H-benzo[d][1,3]oxazin-6-yl)-amide], the half-maximal inhibitory concentration (IC50) at HSV-1 protease is 6.7 µM. In the series with HSV-1, this molecule registered a concentration for an effect of 90% (EC90) of 11.8 µM. The “Cell viability (% of control)” value in the series on Vero cells is 71.8%.

As to `Cc1c(NC(=O)COCc2ccccc2)ccc2nc(NC(C)(C)C(=O)N(C)CCc3ccccn3)oc(=O)c12` [Compound No.184, 2-[6-(2-Benzyloxy-acetylamino)-5-methyl-4-oxo-4H-benzo[d][1,3]oxazin-2-ylamino]-2,N-dimethyl-N-(2-pyridin-2-yl-ethyl)-propionamide], the IC50 on HSV-1 protease was determined as 2.1 µM. Further, the concentration for an effect of 90% (EC90) with HSV-1 turned out to be 12.1 µM. In addition, in the series with Vero cells, the “Cell viability (% of control)” value was found to be 93.1%.

As for `Cc1ccc(C(=O)Nc2ccc3nc(NC(C)(C)C(=O)N(C)CCc4ccccn4)oc(=O)c3c2C)cc1` [Compound No.158, 4-Methyl-N-(5-methyl-2-{1-methyl-1-[methyl-(2-pyridin-2-yl-ethyl)-carbamoyl]-ethylamino}-4-oxo-4H-benzo[d][1,3]oxazin-6-yl)-benzamide], on HSV-1 protease, the IC50 was found to be 3.3 µM. In the series with HSV-1, this molecule came in with a 90% effect concentration (EC90) of 8.3 µM. Moreover, the “Cell viability (% of control)” value in the series with Vero cells was 63.6%.

Consider `Cc1c(NC(=O)c2ccc(C(C)(C)C)cc2)ccc2nc(NC(C)(C)C(=O)N(C)CCc3ccccn3)oc(=O)c12` [Compound No.168, 4-tert-Butyl-N-(5-methyl-2-{1-methyl-1-[methyl-(2-pyridin-2-yl-ethyl)-carbamoyl]-ethylamino}-4-oxo-4H-benzo[d][1,3]oxazin-6-yl)-benzamide], for which the IC50 on HSV-1 protease worked out at 1.3 µM. In addition, in the series on HSV-1, the 90% effect concentration (EC90) was determined as 3.6 µM. Moreover, the “Cell viability (% of control)” value in the series on Vero cells is reported as 16.8%.

`Cc1c(NC(=O)OC(C)(C)C)ccc2nc(N[C@@H](CC(C)C)C(=O)NCc3cccnc3)oc(=O)c12` [Compound No.37, (5-Methyl-2-{3-methyl-1S-[(pyridin-3-ylmethyl)-carbamoyl]-butylamino}-4-oxo-4H-benzo[d][1,3]oxazin-6-yl)-carbamic acid tert-butyl ester]: the half-maximal inhibitory concentration (IC50) on HSV-1 protease worked out at 4.6 µM. The EC90 in the series with HSV-1 came to 15 µM. In the series with Vero cells, the “Cell viability (% of control)” value turned out to be 105.0%.

Take `Cc1c(NC(=O)OC(C)(C)C)ccc2nc(N3CCC[C@H]3C(=O)N(C)CCc3ccncc3)oc(=O)c12` [Compound No.93, (5-Methyl-2-{2S-[methyl-(2-pyridin-4-yl-ethyl)-carbamoyl]-pyrrolidin-1-yl}-4-oxo-4H-benzo[d][1,3]oxazin-6-yl)-carbamic acid tert-butyl ester]: on HSV-1 protease, the IC50 is greater than 20 µM. In the series on HSV-1, this molecule showed a concentration for an effect of 90% (EC90) greater than 12.5 µM. For the same molecule, in the series on Vero cells, the “Cell viability (% of control)” value is 82.4%.

Consider `Cc1c(NC(=O)c2cccc(OC(F)(F)F)c2)ccc2nc(NC(C)(C)C(=O)N(C)CCc3ccccn3)oc(=O)c12` [Compound No.172, N-(5-Methyl-2-{1-methyl-1-[methyl-(2-pyridin-2-yl-ethyl)-carbamoyl]-ethylamino}-4-oxo-4H-benzo[d][1,3]oxazin-6-yl)-3-trifluoromethoxy-benzamide], for which the 50% inhibitory concentration (IC50) on HSV-1 protease amounted to 1.2 µM. In addition, in the series with HSV-1, the EC90 was 9 µM. Moreover, the “Cell viability (% of control)” value in the series with Vero cells was 17.4%.

`Cc1c(NC(=O)OC(C)(C)C)ccc2nc(N[C@@H](CC(C)C)C(=O)N(C)CCc3ccccn3)oc(=O)c12` [Compound No.46, (5-Methyl-2-{3-methyl-1S-[methyl-(2-pyridin-2-yl-ethyl)-carbamoyl]-butylamino}-4-oxo-4H-benzo[d][1,3]oxazin-6-yl)-carbamic acid tert-butyl ester]: the half-maximal inhibitory concentration (IC50) on HSV-1 protease turned out to be 1.7 µM. The molecule also registered an EC90 with HSV-1 of 4.9 µM. For the same molecule, the “Cell viability (% of control)” value in the series with Vero cells is 80.1%.

Take `Cc1c(NC(=O)OC(C)(C)C)ccc2nc(N(C)[C@@H](Cc3ccccc3)C(=O)N(C)Cc3ccccn3)oc(=O)c12` [Compound No.82, (5-Methyl-2-{methyl-[1S-(methyl-pyridin-2-ylmethyl-carbamoyl)-2-phenyl-ethyl]-amino}-4-oxo-4H-benzo[d][1,3]oxazin-6-yl)-carbamic acid tert-butyl ester]: at HSV-1 protease, the concentration for half-maximal inhibition (IC50) was 1.5 µM. This molecule came in with an EC90 with HSV-1 of 10.8 µM. In addition, the “Cell viability (% of control)” value with Vero cells was 61.6%.

On to `Cc1c(NC(=O)OC(C)(C)C)ccc2nc(N[C@@H](CC3CCCCC3)C(=O)N(C)CCc3cccnc3)oc(=O)c12` [Compound No.69, (2-{2-Cyclohexyl-1S-[methyl-(2-pyridin-3-yl-ethyl)-carbamoyl]-ethylamino}-5-methyl-4-oxo-4H-benzo[d][1,3]oxazin-6-yl)-carbamic acid tert-butyl ester], for which the 50% inhibitory concentration (IC50) on HSV-1 protease came out at 3.6 µM. In the series on HSV-1, this molecule yielded an EC90 of less than 3.2 µM. The “Cell viability (% of control)” value with Vero cells is listed as 49.5%.

With `Cc1c(NC(=O)OC(C)(C)C)ccc2nc(N3CCC[C@H]3C(=O)N(C)CCc3cccnc3)oc(=O)c12` [Compound No.92, (5-Methyl-2-{2S-[methyl-(2-pyridin-3-yl-ethyl)-carbamoyl]-pyrrolidin-1-yl}-4-oxo-4H-benzo[d][1,3]oxazin-6-yl)-carbamic acid tert-butyl ester], at HSV-1 protease, the IC50 was greater than 20 µM. Further, in the series on HSV-1, the concentration for an effect of 90% (EC90) was greater than 12.5 µM. Besides, the “Cell viability (% of control)” value in the series on Vero cells turned out to be 87.2%.

Turning to `Cc1c(NC(=O)OC(C)(C)C)ccc2nc(N[C@@H](C)C(=O)N(C)CCc3ccccn3)oc(=O)c12` [Compound No.43, (5-Methyl-2-{1S-[methyl-(2-pyridin-2-yl-ethyl)-carbamoyl]-ethylamino}-4-oxo-4H-benzo[d][1,3]oxazin-6-yl)-carbamic acid tert-butyl ester], the half-inhibitory concentration (IC50) at HSV-1 protease came to 0.7 µM. The molecule also yielded a 90% effect concentration (EC90) with HSV-1 of 9.1 µM. Further, the “Cell viability (% of control)” value in the series on Vero cells is recorded as 104.0%.

As for `Cc1c(NC(=O)OC(C)(C)C)ccc2nc(N(C)[C@@H](C)C(=O)N(C)CCc3ccccn3)oc(=O)c12` [Compound No.76, [5-Methyl-2-(methyl-{1S-[methyl-(2-pyridin-2-yl-ethyl)-carbamoyl]-ethyl}-amino)-4-oxo-4H-benzo[d][1,3]oxazin-6-yl]-carbamic acid tert-butyl ester], the 50% inhibitory concentration (IC50) on HSV-1 protease stood at 2.1 µM. In the series with HSV-1, this molecule registered an EC90 greater than 12.5 µM. Also, the “Cell viability (% of control)” value in the series with Vero cells stood at 87.9%.

Turning to `Cc1c(NC(=O)OC(C)(C)C)ccc2nc(N[C@@H](CCc3ccccc3)C(=O)NCCc3ccccn3)oc(=O)c12` [Compound No.42, {5-Methyl-4-oxo-2-[3-phenyl-1S-(2-pyridin-2-yl-ethylcarbamoyl)-propylamino]-4H-benzo[d][1,3]oxazin-6-yl}-carbamic acid tert-butyl ester], the IC50 on HSV-1 protease turned out to be 1 µM. The same molecule displayed an EC90 in the series with HSV-1 of 10.7 µM. In addition, the “Cell viability (% of control)” value with Vero cells is 83.0%.

Regarding `Cc1c(NC(=O)c2ccccc2C(F)(F)F)ccc2nc(NC(C)(C)C(=O)N(C)CCc3ccccn3)oc(=O)c12` [Compound No.144, N-(5-Methyl-2-{1-methyl-1-[methyl-(2-pyridin-2-yl-ethyl)-carbamoyl]-ethylamino}-4-oxo-4H-benzo[d][1,3]oxazin-6-yl)-2-trifluoromethyl-benzamide], the IC50 on HSV-1 protease came out at 2.3 µM. The molecule further returned an EC90 with HSV-1 greater than 12.5 µM. The “Cell viability (% of control)” value in the series on Vero cells was 76.1%.
